Source: ChEMBL document CHEMBL5058646 (2022)

How the values were obtained:
[1] = target: T1, Zinc finger and BTB domain-containing protein 40 (Homo sapiens) (UniProt Q9NUA8); details: SUD4, Compound concentration 1.0 uM
T1 sequence (whole entry): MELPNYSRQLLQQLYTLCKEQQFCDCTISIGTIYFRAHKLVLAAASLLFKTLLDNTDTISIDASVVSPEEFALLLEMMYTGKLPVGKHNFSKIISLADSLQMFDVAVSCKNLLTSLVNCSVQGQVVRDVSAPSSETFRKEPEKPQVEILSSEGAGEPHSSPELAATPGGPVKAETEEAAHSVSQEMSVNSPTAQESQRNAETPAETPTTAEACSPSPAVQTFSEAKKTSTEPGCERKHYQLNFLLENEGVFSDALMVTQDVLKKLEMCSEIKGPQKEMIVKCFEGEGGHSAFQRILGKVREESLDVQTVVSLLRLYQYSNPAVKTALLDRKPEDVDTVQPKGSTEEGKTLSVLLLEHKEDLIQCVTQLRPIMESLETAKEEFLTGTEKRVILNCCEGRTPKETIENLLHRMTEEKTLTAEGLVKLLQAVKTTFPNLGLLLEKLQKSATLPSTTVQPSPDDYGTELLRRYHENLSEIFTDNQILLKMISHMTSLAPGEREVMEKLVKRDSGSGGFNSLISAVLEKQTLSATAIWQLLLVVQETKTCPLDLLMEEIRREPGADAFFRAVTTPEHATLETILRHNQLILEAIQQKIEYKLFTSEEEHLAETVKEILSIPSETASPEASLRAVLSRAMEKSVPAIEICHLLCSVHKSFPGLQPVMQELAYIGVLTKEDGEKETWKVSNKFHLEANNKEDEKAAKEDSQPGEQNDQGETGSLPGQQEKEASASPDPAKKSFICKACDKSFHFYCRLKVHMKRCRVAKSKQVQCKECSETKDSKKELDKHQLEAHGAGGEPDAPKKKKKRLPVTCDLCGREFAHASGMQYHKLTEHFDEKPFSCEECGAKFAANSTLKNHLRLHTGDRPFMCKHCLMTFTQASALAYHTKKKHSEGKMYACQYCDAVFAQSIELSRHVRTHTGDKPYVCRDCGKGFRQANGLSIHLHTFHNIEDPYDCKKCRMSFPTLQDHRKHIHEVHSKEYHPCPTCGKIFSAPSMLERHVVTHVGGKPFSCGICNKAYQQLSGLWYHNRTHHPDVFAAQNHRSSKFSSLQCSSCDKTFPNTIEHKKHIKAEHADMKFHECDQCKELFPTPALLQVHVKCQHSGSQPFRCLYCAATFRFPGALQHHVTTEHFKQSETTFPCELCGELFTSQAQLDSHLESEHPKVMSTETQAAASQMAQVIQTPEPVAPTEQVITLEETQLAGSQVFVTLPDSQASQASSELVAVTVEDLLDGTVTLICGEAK

[2] = target: Myoneurin (Homo sapiens) (UniProt Q9NPC7); details: SUD4, Compound concentration 1.0 uM
[3] = target: STE20-like serine/threonine-protein kinase (Homo sapiens) (UniProt Q9H2G2); assay: SLK SGC Tm panel (DSF); details: Compound concentration 20.0 uM
[4] = target: Mitogen-activated protein kinase 10 (Homo sapiens) (UniProt P53779); assay: MAPK10 SGC Tm panel (DSF); details: Compound concentration 20.0 uM
[5] = target: Lymphokine-activated killer T-cell-originated protein kinase (Homo sapiens) (UniProt Q96KB5); assay: TOPK SGC Tm panel (DSF); details: Compound concentration 20.0 uM
[6] = target: Maternal embryonic leucine zipper kinase (Homo sapiens) (UniProt Q14680); assay: MELK SGC Tm panel (DSF); details: Compound concentration 20.0 uM
[7] = target: Zinc finger and BTB domain-containing protein 7A (Homo sapiens) (UniProt O95365); details: SUD4, Compound concentration 1.0 uM
[8] = target: Death-associated protein kinase 3 (Homo sapiens) (UniProt O43293); assay: DAPK3 SGC Tm panel (DSF); details: Compound concentration 20.0 uM
[9] = target: T2, Zinc finger and BTB domain-containing protein 2 (Homo sapiens) (UniProt Q8N680); details: SUD4, Compound concentration 1.0 uM
T2 sequence (whole entry): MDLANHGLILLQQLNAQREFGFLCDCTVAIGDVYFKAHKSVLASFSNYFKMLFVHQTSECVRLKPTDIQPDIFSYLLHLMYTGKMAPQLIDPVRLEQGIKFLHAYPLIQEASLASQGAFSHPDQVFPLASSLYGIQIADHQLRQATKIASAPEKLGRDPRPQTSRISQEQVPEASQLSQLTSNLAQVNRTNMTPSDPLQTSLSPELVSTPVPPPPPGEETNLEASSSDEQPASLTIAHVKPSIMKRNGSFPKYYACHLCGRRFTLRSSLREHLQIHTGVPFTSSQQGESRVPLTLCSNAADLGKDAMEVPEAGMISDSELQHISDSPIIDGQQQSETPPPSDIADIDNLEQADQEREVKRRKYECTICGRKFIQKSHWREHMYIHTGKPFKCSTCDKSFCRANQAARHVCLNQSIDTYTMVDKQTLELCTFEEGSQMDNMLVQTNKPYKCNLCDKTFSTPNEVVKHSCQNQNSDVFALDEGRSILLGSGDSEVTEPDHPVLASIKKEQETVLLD

[10] = target: STE20/SPS1-related proline-alanine-rich protein kinase (Homo sapiens) (UniProt Q9UEW8); assay: STK39 SGC Tm panel (DSF); details: Compound concentration 20.0 uM
[11] = target: T3, Telomere zinc finger-associated protein (Homo sapiens) (UniProt P10074); details: SUD4, Compound concentration 1.0 uM
T3 sequence (whole entry): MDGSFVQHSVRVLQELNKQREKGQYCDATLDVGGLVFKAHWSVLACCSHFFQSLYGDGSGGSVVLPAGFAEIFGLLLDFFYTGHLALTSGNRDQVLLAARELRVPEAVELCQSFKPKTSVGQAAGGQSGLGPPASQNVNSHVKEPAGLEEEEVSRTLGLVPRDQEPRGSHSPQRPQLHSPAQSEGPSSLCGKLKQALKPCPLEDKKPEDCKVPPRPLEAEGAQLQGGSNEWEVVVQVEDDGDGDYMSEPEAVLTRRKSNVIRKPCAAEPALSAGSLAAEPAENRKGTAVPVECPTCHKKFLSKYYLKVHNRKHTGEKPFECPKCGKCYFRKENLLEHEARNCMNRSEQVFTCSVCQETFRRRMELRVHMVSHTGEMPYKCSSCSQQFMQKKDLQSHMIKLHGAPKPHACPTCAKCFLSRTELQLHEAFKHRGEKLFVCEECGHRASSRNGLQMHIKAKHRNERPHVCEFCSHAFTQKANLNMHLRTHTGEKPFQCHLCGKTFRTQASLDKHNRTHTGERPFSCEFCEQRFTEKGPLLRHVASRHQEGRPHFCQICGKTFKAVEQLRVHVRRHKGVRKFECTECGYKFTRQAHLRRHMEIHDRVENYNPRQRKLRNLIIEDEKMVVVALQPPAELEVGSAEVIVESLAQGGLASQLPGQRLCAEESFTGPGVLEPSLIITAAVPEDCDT

[12] = target: Casein kinase II subunit alpha (Homo sapiens) (UniProt P68400); assay: CSNK2A1 SGC Tm panel (DSF); details: Compound concentration 20.0 uM
Chain of Casein kinase II subunit alpha (Homo sapiens) (P68400 whole entry, looked up): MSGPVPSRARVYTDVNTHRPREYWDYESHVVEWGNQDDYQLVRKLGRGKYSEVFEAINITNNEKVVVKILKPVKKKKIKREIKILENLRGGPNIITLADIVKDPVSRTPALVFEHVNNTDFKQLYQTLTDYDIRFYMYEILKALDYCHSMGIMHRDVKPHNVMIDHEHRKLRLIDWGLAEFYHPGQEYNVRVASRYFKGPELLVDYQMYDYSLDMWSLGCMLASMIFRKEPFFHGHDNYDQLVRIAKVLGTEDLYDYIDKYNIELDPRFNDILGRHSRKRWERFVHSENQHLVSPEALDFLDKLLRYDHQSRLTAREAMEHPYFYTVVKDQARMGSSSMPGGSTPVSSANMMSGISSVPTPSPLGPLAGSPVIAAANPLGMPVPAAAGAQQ

Chain of Mitogen-activated protein kinase 10 (Homo sapiens) (P53779 whole entry): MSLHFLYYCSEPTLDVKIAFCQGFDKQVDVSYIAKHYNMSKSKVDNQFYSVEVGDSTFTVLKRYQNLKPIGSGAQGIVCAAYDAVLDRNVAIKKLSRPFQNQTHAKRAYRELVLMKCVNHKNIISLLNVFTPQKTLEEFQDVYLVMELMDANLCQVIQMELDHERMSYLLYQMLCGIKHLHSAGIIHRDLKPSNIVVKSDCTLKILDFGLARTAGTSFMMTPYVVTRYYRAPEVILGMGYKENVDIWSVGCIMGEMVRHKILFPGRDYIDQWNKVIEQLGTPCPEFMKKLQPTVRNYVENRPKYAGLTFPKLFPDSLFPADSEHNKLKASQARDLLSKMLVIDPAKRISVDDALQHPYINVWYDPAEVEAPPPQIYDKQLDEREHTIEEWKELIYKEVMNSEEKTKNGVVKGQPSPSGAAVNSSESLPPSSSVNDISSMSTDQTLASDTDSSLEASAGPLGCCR
Chain of Death-associated protein kinase 3 (Homo sapiens) (O43293 whole entry, looked up, the tested form may be a part): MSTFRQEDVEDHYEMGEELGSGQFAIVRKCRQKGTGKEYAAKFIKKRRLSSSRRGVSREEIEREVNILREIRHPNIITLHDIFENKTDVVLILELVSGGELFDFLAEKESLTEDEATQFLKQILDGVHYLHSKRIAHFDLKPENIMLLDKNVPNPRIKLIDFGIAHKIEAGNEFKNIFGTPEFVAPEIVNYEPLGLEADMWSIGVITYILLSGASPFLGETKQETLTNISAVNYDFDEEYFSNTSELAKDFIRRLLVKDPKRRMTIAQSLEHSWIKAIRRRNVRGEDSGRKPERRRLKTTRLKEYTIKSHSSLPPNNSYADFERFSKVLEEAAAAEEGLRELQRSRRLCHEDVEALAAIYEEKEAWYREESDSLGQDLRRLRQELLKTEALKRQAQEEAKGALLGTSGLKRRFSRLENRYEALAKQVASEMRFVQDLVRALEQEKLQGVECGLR
Chain of Lymphokine-activated killer T-cell-originated protein kinase (Homo sapiens) (Q96KB5 whole entry): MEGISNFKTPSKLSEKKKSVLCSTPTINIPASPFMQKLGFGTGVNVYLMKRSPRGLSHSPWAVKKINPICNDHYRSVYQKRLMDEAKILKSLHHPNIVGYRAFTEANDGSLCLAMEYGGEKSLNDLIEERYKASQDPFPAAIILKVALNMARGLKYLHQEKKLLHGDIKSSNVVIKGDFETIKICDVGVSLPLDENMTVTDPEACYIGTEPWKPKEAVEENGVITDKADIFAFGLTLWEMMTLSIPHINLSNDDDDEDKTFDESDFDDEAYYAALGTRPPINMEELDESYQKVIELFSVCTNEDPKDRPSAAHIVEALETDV
Chain of STE20-like serine/threonine-protein kinase (Homo sapiens) (Q9H2G2 whole entry, looked up): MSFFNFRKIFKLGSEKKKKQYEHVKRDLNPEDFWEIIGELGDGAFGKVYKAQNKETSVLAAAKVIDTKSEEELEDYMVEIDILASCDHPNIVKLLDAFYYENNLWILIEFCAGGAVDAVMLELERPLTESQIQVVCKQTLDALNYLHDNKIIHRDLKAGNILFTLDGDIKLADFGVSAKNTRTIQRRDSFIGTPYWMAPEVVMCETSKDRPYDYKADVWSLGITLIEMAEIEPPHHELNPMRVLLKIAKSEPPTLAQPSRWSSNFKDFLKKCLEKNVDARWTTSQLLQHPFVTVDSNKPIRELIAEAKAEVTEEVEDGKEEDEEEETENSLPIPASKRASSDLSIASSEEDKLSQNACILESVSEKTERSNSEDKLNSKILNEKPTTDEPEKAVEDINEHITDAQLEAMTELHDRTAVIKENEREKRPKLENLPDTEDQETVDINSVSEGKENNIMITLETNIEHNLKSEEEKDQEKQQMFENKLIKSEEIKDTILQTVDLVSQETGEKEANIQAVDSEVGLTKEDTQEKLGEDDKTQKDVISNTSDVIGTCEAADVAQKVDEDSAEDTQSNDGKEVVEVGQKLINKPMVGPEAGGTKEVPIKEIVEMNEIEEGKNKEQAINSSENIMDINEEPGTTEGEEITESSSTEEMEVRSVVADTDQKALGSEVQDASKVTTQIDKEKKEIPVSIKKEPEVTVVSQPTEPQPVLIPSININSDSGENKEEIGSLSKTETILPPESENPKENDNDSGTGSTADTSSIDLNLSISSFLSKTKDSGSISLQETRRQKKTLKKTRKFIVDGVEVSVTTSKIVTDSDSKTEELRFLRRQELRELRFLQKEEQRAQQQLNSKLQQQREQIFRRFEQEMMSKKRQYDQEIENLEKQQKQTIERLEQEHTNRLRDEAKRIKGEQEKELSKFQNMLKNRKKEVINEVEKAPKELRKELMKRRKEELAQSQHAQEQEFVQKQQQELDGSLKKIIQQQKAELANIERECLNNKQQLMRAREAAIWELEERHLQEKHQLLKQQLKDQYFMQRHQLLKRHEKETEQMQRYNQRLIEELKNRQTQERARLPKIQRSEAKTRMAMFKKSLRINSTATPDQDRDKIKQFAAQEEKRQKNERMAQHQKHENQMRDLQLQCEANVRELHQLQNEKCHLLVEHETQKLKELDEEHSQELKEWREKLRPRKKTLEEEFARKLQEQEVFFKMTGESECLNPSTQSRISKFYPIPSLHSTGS
Chain of Maternal embryonic leucine zipper kinase (Homo sapiens) (Q14680 whole entry, looked up, the tested form may be a part): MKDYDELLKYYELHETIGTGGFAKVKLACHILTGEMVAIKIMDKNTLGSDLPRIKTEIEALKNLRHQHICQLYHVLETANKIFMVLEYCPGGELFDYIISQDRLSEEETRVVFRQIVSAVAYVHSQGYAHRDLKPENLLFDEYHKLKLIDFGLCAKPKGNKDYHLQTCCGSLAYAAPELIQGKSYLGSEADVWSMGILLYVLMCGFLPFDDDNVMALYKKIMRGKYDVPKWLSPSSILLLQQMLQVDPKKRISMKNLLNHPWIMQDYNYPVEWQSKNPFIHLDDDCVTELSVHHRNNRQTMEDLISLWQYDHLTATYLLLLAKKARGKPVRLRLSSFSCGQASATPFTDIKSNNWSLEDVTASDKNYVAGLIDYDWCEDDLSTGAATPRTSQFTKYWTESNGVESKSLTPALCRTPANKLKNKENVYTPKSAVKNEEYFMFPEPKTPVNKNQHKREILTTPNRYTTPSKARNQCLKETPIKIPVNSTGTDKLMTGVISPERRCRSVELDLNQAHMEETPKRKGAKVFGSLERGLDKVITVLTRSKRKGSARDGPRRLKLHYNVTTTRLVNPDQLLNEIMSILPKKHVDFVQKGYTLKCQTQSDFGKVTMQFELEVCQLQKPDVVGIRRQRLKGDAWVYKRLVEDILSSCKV
Chain of Myoneurin (Homo sapiens) (Q9NPC7 whole entry): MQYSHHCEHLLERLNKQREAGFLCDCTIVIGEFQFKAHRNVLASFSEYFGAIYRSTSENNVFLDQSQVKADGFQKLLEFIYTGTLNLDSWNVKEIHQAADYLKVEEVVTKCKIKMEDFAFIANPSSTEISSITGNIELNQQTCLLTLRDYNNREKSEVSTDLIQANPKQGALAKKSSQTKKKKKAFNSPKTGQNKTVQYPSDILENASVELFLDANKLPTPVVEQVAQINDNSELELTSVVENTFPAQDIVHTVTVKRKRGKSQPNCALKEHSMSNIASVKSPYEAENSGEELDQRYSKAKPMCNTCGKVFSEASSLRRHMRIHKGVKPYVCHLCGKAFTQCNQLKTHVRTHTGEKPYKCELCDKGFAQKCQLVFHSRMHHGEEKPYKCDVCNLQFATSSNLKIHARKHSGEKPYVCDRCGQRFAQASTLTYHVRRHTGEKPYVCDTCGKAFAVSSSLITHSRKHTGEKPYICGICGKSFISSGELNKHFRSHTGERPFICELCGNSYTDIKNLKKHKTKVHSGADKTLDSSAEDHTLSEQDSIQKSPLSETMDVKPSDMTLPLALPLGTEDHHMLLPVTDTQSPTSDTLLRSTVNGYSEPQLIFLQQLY
Chain of Zinc finger and BTB domain-containing protein 7A (Homo sapiens) (O95365 whole entry, the tested form may be a part): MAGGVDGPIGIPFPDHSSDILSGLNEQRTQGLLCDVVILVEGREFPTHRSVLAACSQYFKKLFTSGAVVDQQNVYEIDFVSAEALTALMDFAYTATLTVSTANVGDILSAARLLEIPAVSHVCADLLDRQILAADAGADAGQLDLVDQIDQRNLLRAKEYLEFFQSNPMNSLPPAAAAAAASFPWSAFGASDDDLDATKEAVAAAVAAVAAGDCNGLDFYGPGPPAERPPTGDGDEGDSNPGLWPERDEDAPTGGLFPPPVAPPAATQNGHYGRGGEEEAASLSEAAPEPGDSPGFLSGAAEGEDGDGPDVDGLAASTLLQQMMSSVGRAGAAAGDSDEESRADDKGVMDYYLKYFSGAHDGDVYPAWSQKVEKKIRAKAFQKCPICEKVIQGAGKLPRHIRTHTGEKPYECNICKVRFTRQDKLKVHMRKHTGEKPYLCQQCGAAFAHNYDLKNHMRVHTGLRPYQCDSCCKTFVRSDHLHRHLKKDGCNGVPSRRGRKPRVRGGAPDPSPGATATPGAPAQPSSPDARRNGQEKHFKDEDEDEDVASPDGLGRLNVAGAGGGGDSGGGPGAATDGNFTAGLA

C[C@@H]1CN(c2ncc(Cl)c(Nc3ccc4c(c3)n(CCC(C)(C)O)c(=O)n4C)n2)C[C@H](C)C1(F)F
inactive: LogFC [1] 0.0845 | LogFC [2] -0.189 | Tm [3] 42 °C | Tm [4] 48 °C | Tm [5] 43 °C | Tm [6] 41 °C | LogFC [7] 0.0336 | Tm [8] 39 °C | LogFC [9] 0.029 | Tm [10] 37 °C | LogFC [11] 0.0324 | Tm [12] 44 °C
